Test results reported in the supplement of paper PMC10307832.

What was measured:
Test in all cases: relative viability (nuclei count vs DMSO), 5 days (fraction); higher = more cells survive
[1] = compound: CN1C=C(C2=CC=CC=C21)/C=C\3/C4=C(C=CC=N4)NC3=O + CC1(C)CCC(c2ccc(Cl)cc2)=C(CN2CCN(c3ccc(C(=O)NS(=O)(=O)c4ccc(N[C@H](CCN5CCOCC5)CSc5ccccc5)c(S(=O)(=O)C(F)(F)F)c4)cc3)CC2)C1 [Navitoclax] (partner 0.5 µM)
Procedure, shortened: (§1)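 A single step with final 0.05% Triton X-100, 1% formaldehyde and 1 ug/ml Hoechst fixed the cells and stained nuclei 5 days after treatment. Lung cancer cell lines in 1536-well plates had been treated by pin tool the day after seeding with one drug alone or a fixed anchor-drug dose plus five library-drug doses (not always all listed) in √10 steps, and nuclei were counted on 4× images. Relative viability is the ratio of nuclei in treated wells to nuclei in vehicle wells, taken as the median of duplicate plates.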

[2] = compound: CC(=O)Nc1cccc(-n2c(=O)n(C3CC3)c(=O)c3c(Nc4ccc(I)cc4F)n(C)c(=O)c(C)c32)c1 [Trametinib] + Cc1nc(NC(=O)N2CCC[C@H]2C(N)=O)sc1-c1ccnc(C(C)(C)C(F)(F)F)c1 [Alpelisib] (partner 2 µM)
Procedure, shortened: as §1

[3] = compound: CC(=O)Nc1cccc(-n2c(=O)n(C3CC3)c(=O)c3c(Nc4ccc(I)cc4F)n(C)c(=O)c(C)c32)c1 [Trametinib] + NC(=O)Nc1cc(-c2cccc(F)c2)sc1C(=O)N[C@H]1CCCNC1 [AZD7762] (partner 0.2 µM)
Procedure, shortened: as §1

[4] = compound: CC(=O)Nc1cccc(-n2c(=O)n(C3CC3)c(=O)c3c(Nc4ccc(I)cc4F)n(C)c(=O)c(C)c32)c1 [Trametinib] + CCNC(=O)c1noc(-c2cc(C(C)C)c(O)cc2O)c1-c1ccc(CN2CCOCC2)cc1 [Luminespib] (partner 0.01 µM)
Procedure, shortened: as §1

Cell Line	relative viability ([1]; first compound 0.02 µM)	relative viability ([1]; first compound 0.06325 µM)	relative viability ([1]; first compound 0.2 µM)	relative viability ([1]; first compound 0.6325 µM)	relative viability ([1]; first compound 2 µM)	relative viability ([2]; first compound 0.0025 µM)	relative viability ([2]; first compound 0.007906 µM)	relative viability ([2]; first compound 0.025 µM)	relative viability ([2]; first compound 0.07906 µM)	relative viability ([2]; first compound 0.25 µM)	relative viability ([3]; first compound 0.0025 µM)	relative viability ([3]; first compound 0.007906 µM)	relative viability ([3]; first compound 0.025 µM)	relative viability ([3]; first compound 0.07906 µM)	relative viability ([3]; first compound 0.25 µM)	relative viability ([4]; first compound 0.0025 µM)	relative viability ([4]; first compound 0.007906 µM)	relative viability ([4]; first compound 0.025 µM)	relative viability ([4]; first compound 0.07906 µM)	relative viability ([4]; first compound 0.25 µM)
EBC-1	0.37	0.426	0.384	0.48	0.498	0.901	0.65	0.313	0.21	0.206	–	–	–	–	–	–	–	–	–	–
EKVX	0.909	0.774	0.811	0.7	0.772	0.832	0.638	0.629	0.444	0.343	0.653	0.712	0.583	0.442	0.769	0.864	0.767	0.331	0.446	0.351
EMC-BAC-2	0.924	1.12	1.25	1.13	1.35	0.645	0.641	0.562	0.568	0.497	1.19	1.14	0.994	0.932	0.757	1.18	1.04	1.04	0.95	0.684
EPLC-272H	1.37	0.988	–	1.27	0.944	0.721	0.539	0.438	0.438	0.346	0.223	0.242	0.175	0.17	0.225	0.222	0.22	0.251	0.129	0.117
H3255	0.547	0.484	0.422	0.439	0.425	0.684	0.566	0.503	0.41	0.317	0.805	0.736	0.8	0.733	0.505	1.07	0.928	0.581	0.601	0.236
HARA	1.09	1.15	1.04	1.17	1.17	0.758	0.657	0.44	0.498	0.241	0.447	0.394	0.365	0.276	0.215	0.75	0.534	0.694	0.234	0.13
HCC-15	0.763	0.689	0.736	0.559	0.665	0.645	0.436	0.275	0.204	0.148	1.29	1	1.14	0.928	0.407	0.313	0.186	0.157	0.165	0.192
HCC-44	0.943	1.03	0.89	0.726	0.772	0.774	0.618	0.614	0.528	0.187	0.958	1.07	1.2	1.31	1.05	1.03	0.907	0.931	0.553	0.193
